According to the NIST ThermoML archive (doi:10.1016/j.jct.2011.09.007):
Numbers after ± are expanded uncertainties.

Experiments:
[1] = Liquid; for mass density: 298.15 K, 101.33 kPa, Vibrating tube method; for vapor or sublimation pressure: Ebulliometric method (Recirculating still)
[2] = refractive index (Na D-line) (dimensionless); conditions: 298.15 K; 101.33 kPa; Liquid; Standard Abbe refractometry

Row | SMILES | mass density [1] [kg/m3] | vapor or sublimation pressure ([1]; 330 K) [kPa] | vapor or sublimation pressure ([1]; 340 K) [kPa] | refractive index [2] | vapor or sublimation pressure ([1]; 330.04 K) [kPa] | vapor or sublimation pressure ([1]; 331.02 K) [kPa] | vapor or sublimation pressure ([1]; 337.07 K) [kPa] | vapor or sublimation pressure ([1]; 340.05 K) [kPa] | vapor or sublimation pressure ([1]; 340.57 K) [kPa] | vapor or sublimation pressure ([1]; 343.73 K) [kPa] | vapor or sublimation pressure ([1]; 347.76 K) [kPa] | vapor or sublimation pressure ([1]; 351.12 K) [kPa] | vapor or sublimation pressure ([1]; 365.8 K) [kPa] | vapor or sublimation pressure ([1]; 371.23 K) [kPa] | vapor or sublimation pressure ([1]; 373.22 K) [kPa] | vapor or sublimation pressure ([1]; 375.59 K) [kPa] | vapor or sublimation pressure ([1]; 378.26 K) [kPa] | vapor or sublimation pressure ([1]; 381.01 K) [kPa] | vapor or sublimation pressure ([1]; 382.94 K) [kPa] | vapor or sublimation pressure ([1]; 384.94 K) [kPa]
1 | CC(C)CC(C)(C)C [2,2,4-trimethylpentane] | 687.79 ± 0.2 | 25.47 ± 0.16 | 36.64 ± 0.2 | 1.38894 ± 0.00072 |  |  |  |  |  |  |  |  |  |  |  |  |  |  |  | 
2 | CC(C)C(=O)C(C)C [2,4-dimethyl-3-pentanone] | 798.8 ± 0.21 | 8.87 ± 0.04 | 13.55 ± 0.06 | 1.3974 ± 0.0007 | 8.87 ± 0.04 | 9.28 ± 0.04 | 12.02 ± 0.05 | 13.58 ± 0.06 | 13.89 ± 0.06 | 15.78 ± 0.06 | 18.48 ± 0.07 | 21.02 ± 0.08 | 35.36 ± 0.11 | 42.49 ± 0.14 | 45.36 ± 0.15 | 49 ± 0.16 | 53.37 ± 0.18 | 58.22 ± 0.19 | 61.82 ± 0.2 | 65.74 ± 0.21
3 | CC(C)O [propan-2-ol] | 780.91 ± 0.16 | 33.25 ± 0.23 | 52.97 ± 0.29 | 1.37504 ± 0.00072 |  |  |  |  |  |  |  |  |  |  |  |  |  |  |  | 
